Assay results as given in PMC9775433 (Cancers, 2022).
Several values for one entry are separate records, joined by “and”; a condition that tells them apart may be missing. Equal entries are not always repeated. Where two headings read alike, the source gives them in different places.

What was measured:
[1] = in vivo; cited from earlier work
[2] = Skin drug concentration in skin biopsy at day 17 (LC-MS-MS); format: in vivo, human; conditions: individual patient; for concentration at 17 day: human, skin, oral, Skin - Sunitinib concentration
Method: (§1) All tissue samples were immediately snap frozen (within 1 min) in liquid nitrogen and cryopreserved at −80 °C until the day of analysis.
(§2) Tissue biopsies were weighed accurately before analysis. Tissue homogenate was prepared by using a mechanical homogenizer. The tumor tissue was homogenized with the precellys lysing kit (bertin instruments®) in the Roche MagNA lyzer®. […] Tissue homogenate samples were directly analyzed.
(§3) Supplementary data S2 – Methods (Details)
(§4) samples; using a validated liquid chromatography–tandem mass spectrometry (LC-MS-MS).
(§5) The system consisted of an Acquity H‐Class UPLC system, coupled to a Xevo TQ‐S micro
(§6) tandem mass spectrometer. […]

[3] = system: RASSF3; design: method as in earlier work; conditions: cited from earlier work
[4] = system: CSNK1D; design: method as in earlier work; conditions: cited from earlier work
[5] = CAM-assay, cited from earlier work
[6] = mice; cited from earlier work
[7] = Tumor drug concentration in tumor needle biopsy at day 17 (LC-MS-MS); format: in vivo, human; conditions: individual patient; for concentration at 17 day: human, tumor, oral, Tumor - Sunitinib concentration
Method: as §1, §2, §3, §4, §5, §6

[8] = system: Q6ZSR9; design: method as in earlier work; conditions: cited from earlier work
[9] = Food effect cohort; format: in vivo, human; conditions: 700 mg Q2W, fed versus fasted
[10] = system: CD31; assay: Immunohistochemistry of tumor biopsies, CD31 (microvessel density); format: in vivo, human; conditions: 10 paired tumor biopsies, day 17
Method: (§7) Immunohistochemistry: Immunohistochemical staining was performed on 3–5 μm thick sections of the (freeze) tumor biopsies for CD3, CD31 and Ki67 according to standard methods (see Supplementary Data S2). Morphological characteristics were assessed in hematoxylin-eosin (H&E)-stained tissue sections. Evaluation of staining was performed by four investigators using light microscopy of serial tissue sections. […] Semi-quantification of CD31 staining was scored manually by a pathologist. The number of cells positive for CD3, CD31 was expressed as an estimated proportion of the total number of cells. […]
(§8) Finally, staining was
(§9) visualized with 3,3-diamino-benzidine-tetra hydrochloride (DAB), 0.3 mg/ml in 1 ml PBS
(§10) with 0.3 % H2O2. All slides were counterstained with hematoxylin.

[11] = system: CD3; assay: Immunohistochemistry of tumor biopsies, CD3 (T-cell infiltration); format: in vivo, human; conditions: 10 paired tumor biopsies
Method: as §7, §8, §9, §10

[12] = system: CLK1; design: method as in earlier work; conditions: cited from earlier work
[13] = system: Ki67; assay: Immunohistochemistry of tumor biopsies, Ki67 (tumor cell proliferation); format: in vivo, human; conditions: 10 paired tumor biopsies, day 17
Method: as §7, §8, §9, §10

[14] = system: TNIK; design: method as in earlier work; conditions: cited from earlier work
[15] = system: FGFR-1; design: method as in earlier work; conditions: cited from earlier work
[16] = system: refractory solid tumors; design: method as in PMID 30586316; conditions: cited from earlier work
[17] = system: LATS1; design: method as in earlier work; conditions: cited from earlier work
[18] = system: TEX264; design: method as in earlier work; conditions: cited from earlier work
[19] = system: PHKG2; design: method as in earlier work; conditions: cited from earlier work
[20] = system: MAP4K4; design: method as in earlier work; conditions: cited from earlier work
[21] = Plasma pharmacokinetics of high-dose intermittent sunitinib (LC-MS-MS, NONMEM); format: in vivo, human; conditions: human, plasma, oral, Cmax plasma - Sunitinib concentration, individual patient
Method: Study pharmacokinetic assessment in plasma: Ethylenediaminetetraacetic acid (EDTA) blood was collected pretreatment and subsequently at multiple time points in all patients (0, 2, 4, 6, 8, 10, and 24 h post-dose on day 1 for both time schedules and thereafter at days 3, 8, 10, 15, 17, and 22 for the once weekly schedule and at days 3, 15, 17, and 29 for the once every 2 weeks schedule). All samples were centrifuged within 1 h after collection at 2000 g for 10 min (at 4 degrees Celsius (°C)), plasma was separated and stored at −80 °C until the day of analysis.
Since there is no evidence for the exact relationship between plasma and tumor concentrations, we chose to use the concentration–time data calculated by NONMEM for Cmax, the average concentration over time (Caverage) and the trough concentrations just before the next dose was administered (Ctrough) based on rich PK-data of each individual patient. […] Inter-occasion variability in bioavailability and absorption duration were allowed in the model. The control stream of the final model and the goodness-of-fit plots are supplied in the Supplementary Material (Supplementary Data S3). The developed model was used to derive the individual predictions for the Cmax, Caverage, and Ctrough. SUM concentrations were calculated.
as §3, §4, §5, §6

[22] = system: RASSF5; design: method as in earlier work; conditions: cited from earlier work
[23] = cited from earlier work
[24] = system: AAK1; design: method as in earlier work; conditions: cited from earlier work
[25] = standard daily schedule, three patients

- concentration at 17 day ([7]; 800 mg, 800 mg O2W): 228 ng/mL
- effect of food on oral uptake [9]: did not affect
SMILES: CCN(CC)CCNC(=O)c1c(C)[nH]c(/C=C2\C(=O)Nc3ccc(F)cc32)c1C [sunitinib]
